Results on four molecules are retold here after ChEMBL document CHEMBL3714709, “T1R hetero-oligomeric taste receptors, cell lines that express said receptors, and taste compounds” (2008).

Active and inactive are the calls of the source. No cut-off for these calls is given here.

Test [1] has as its target T1, Taste receptor type 2 member 105 (Mus musculus) (UniProt Q9JKT4).
T1 sequence (whole entry): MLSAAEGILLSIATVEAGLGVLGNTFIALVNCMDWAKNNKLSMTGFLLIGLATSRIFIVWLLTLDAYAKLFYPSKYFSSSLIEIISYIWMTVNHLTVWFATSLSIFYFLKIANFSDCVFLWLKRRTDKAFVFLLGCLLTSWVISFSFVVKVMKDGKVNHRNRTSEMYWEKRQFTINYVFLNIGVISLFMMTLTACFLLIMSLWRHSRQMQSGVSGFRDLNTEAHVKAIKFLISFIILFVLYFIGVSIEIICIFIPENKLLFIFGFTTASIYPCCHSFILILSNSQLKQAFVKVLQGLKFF
As to the kind of experiment: Inhibition of mouse T2R5 expressed in HEK293 cells. The format is cell-based.

Test [2] addresses Muscarinic acetylcholine receptor (Homo sapiens) (UniProt P20309+P08173+P11229+P08172+P08912). As to the kind of experiment: Inhibition of mAChR (unknown origin) expressed in HEK293 cells. It is filed as cell-based.
In a further test the target is T1R1/T1R3 (Homo sapiens) (UniProt Q7RTX0+Q7RTX1). As to the kind of experiment: Activation of human T1R1/T1R3. It is filed as protein-complex assay.

On to `COc1ccc(OC(C)C(=O)O)cc1` (stereo not given), for which the inhibition entry in test [1] and in test [2] was “inactive” each time.
As to `O=C1NS(=O)(=O)c2ccccc21`, the result at T1R1/T1R3 (Homo sapiens) was inactive.
Same read-out and setting: to `N[C@H](Cc1c[nH]c2ccccc12)C(=O)O` belongs “inactive”.
Turning to `OC[C@H]1O[C@@](CO)(O[C@H]2O[C@H](CO)[C@@H](O)[C@H](O)[C@H]2O)[C@@H](O)[C@@H]1O`, on T1R1/T1R3 (Homo sapiens), the result was inactive.
